The test system of assay [1] is vascularized heart allograft. Briefly: Vascularized heart allograft survival, C57BL/6 into BALB/c recipients. The assay is classed as in vivo, mouse. The settings on record: Dose 5 (unit not given) per os 3x/w every other day from d-1 until d+30. From the text:
Fully vascularized hearts were grafted into the abdomen of recipient mice as described (Corry, R. J., H. J. Winn, and P. S. Russell. Primarily vascularized allografts of hearts in mice. The role of H-2D, H-2K, and non-H-2 antigens in rejection. Transplantation. 1973, 16:343). Graft survival was monitored by palpation and rejection was confirmed by direct graft inspection.

The subject of assay [2] is NOD mice. The settings on record: cited from earlier work.
Assay [3] deals with IL-12. The conditions noted are these: cited from earlier work.
Assay [4] has as its system IL-12p75. The conditions noted are these: short treatment; Mattner et al. 2000; cited from earlier work.
Setting [5] is: administered to NOD mice starting from three weeks of age.

`C=C1/C(=C\C=C2/CCC[C@@]3(C)C2CCC3[C@H](C)CCCC(C)(C)O)C[C@@H](O)C[C@@H]1O` (stereo partly shown) [Reference, reference compound]: the “Graft survival (days) Mean” value in assay [1] worked out at 14.33 days.
Regarding `C=C1/C(=C\C=C2/CCC[C@]3(C)[C@@H]([C@H](C)CCCC(C)(C)O)CC[C@@H]23)C[C@@H](O)C[C@@H]1O` [1,25(OH)2D3, 1,25-dihydroxyvitamin D3], the “preventing progression of diabetes” value in assay [2] (administered to NOD mice from 8 weeks of age) is listed as “ineffective”. Besides, in assay [2] (setting [5]), the incidence of insulitis entry is listed as “reduces the incidence of insulitis” and the “type 1 DM development” value was “prevents type 1 DM development”. The IL-12 production entry in assay [3] was “inhibits IL-12 production”. In assay [4], the “LPS-induced serum levels of both cytokines (IL-12, IFN-γ)” value was “can be inhibited”.
With `C=C1/C(=C\C=C2/CCC[C@@]3(C)C2CCC3[C@@H](C)CCCC(C)(C)O)C[C@@H](O)C[C@@H]1O` (stereo partly shown) [MC1288], the incidence of disease entry in assay [2] (treatment of 8 week-old NOD mice, combined or alone) was “neither treatment alone was effective”.

Values taken from patent US20040214803A1, “Use of vitamin d3 analogue for the treatment of autoimmune diabetes” (priority 2001, published 2004).
